In US7485315B2, “Compositions comprising a compound of low solubility and a lipophilic amino acid derivative, uses thereof and process for dissolving a compound of low solubility” (L'Oreal, priority 2001, dated 2009):

Columns and labels:
[1] = Simple solubility in isopropyl N-lauroylsarcosinate
Procedure: Protocol: The derivatives of low solubility in water are weighed out and placed in a sealed pill bottle. The required amount of solvent is added. The suspension is stirred (magnetic stirring) at 80° C. for not more than 1 hour.
The non-solubility of the active agent in the solvent is characterized macroscopically by a precipitate or just a cloudy solution, and microscopically by the presence of crystals.
The solvent used is isopropyl N-lauroylsarcosinate.

[2] = Dissolution by lipophilic amino acid derivatives without recrystallization; type: physicochemical; conditions: in lipophilic amino acid derivatives, after 24 hours at 25° C.
Procedure: By way of illustration, the lipophilic amino acid derivatives used for the purposes of the present patent application allowed the dissolution of: • more than 20% of aminophenol derivatives without recrystallization after three weeks at 25° C., • more than 15% of salicylic acid derivatives without recrystallization after three weeks at 25° C. • about 4% of diosgenin or hecogenin acetate without recrystallization after 24 hours at 25° C.

[3] = content 2% in isopropyl N-lauroylsarcosinate
[4] = content 5% in isopropyl N-lauroylsarcosinate

Row | SMILES | Stability over time at 25° C. (clear for) [1, 4] | Stability over time at 25° C. (clear for) [1, 3] | Amount dissolved without recrystallization [2] | further results
1 | CCCCCCCCCCCCNc1ccnc(N)[n+]1[O-] [2-amino-4-dodecylaminopyrimidine 3-oxide] | – | – | – | Stability over time at 25° C. (clear for) ([1]; content 1% in isopropyl N-lauroylsarcosinate): clear for 1 day
2 | CC(=O)O[C@H]1CC[C@@]2(C)[C@@H](CC[C@@H]3[C@@H]2CC(=O)[C@]2(C)[C@@H]4[C@H](C[C@@H]32)O[C@]2(CC[C@@H](C)CO2)[C@H]4C)C1 [Hecogenin acetate, (3β, 5α, 25R)-3-hydroxyspirostan-12-one (hecogenin acetate)] | – | clear for 1 day | about 4% | –
3 | C[C@@H]1CC[C@@]2(OC1)O[C@H]1C[C@H]3[C@@H]4CC=C5C[C@@H](O)CC[C@]5(C)[C@H]4CC[C@]3(C)[C@H]1[C@@H]2C [Diosgenin, 5-spirostene-3-β-ol] | – | clear for 3 weeks | about 4% | –

The next lines start with results.

Row | Stability over time at 25° C. (clear for) [1, 4] | SMILES | Stability over time at 25° C. (clear for) [1, 3] | Amount dissolved without recrystallization [2] | further results
4 | clear for 7 days | CCCCCCCC(=O)c1ccc(O)c(C(=O)O)c1 [5-n-octanoylsalicylic acid] | – | – | Stability over time at 25° C. (clear for) ([1]; content 9% in isopropyl N-lauroylsarcosinate): clear for 4 days; Stability over time at 25° C. ([1]; content 27% in isopropyl N-lauroylsarcosinate): clear
5 | clear for 18 days | CCOC(=O)Nc1ccc(O)cc1 [N-ethoxycarbonyl-para-aminophenol, N-ethoxycarbonyl-4-para-aminophenol] | – | – | Stability over time at 25° C. (clear for) ([1]; content 20% in isopropyl N-lauroylsarcosinate): clear for 6 days; Stability over time at 25° C. (clear for) ([1]; content 23% in isopropyl N-lauroylsarcosinate): clear for 6 days; Stability over time at 25° C. (clear for) ([1]; content 26% in isopropyl N-lauroylsarcosinate): clear for 1 day
